Laboratory results published in patent publication US4737513A, “Novel pyrrole derivatives” (Roussel Uclaf, priority 1984, dated 1988).

Columns and labels:
Type in all cases: in vivo
house flies = experiment: Study of knock-down activity of house flies (direct atomization in a Kearns and March chamber); conditions: concentration at 0.1 g/l; female house flies 4 days old; acetone (5%) and Isopar L
Description: (1) Study of knock-down activity of house flies
The test insects were female house flies 4 days old and the test was effected by direct atomization in a Kearns and March chamber using as solvent a mixture of acetone (5%) and Isopar L (petrol solvent) (quantity of solvent used, 2 ml in one second). 50 insects were used per treatment and checks were made every minute for 10 minutes, then at 15 minutes, and the KT50 was determined by the usual methods.

[1] = tested on: cockroaches (Blatella germanica); experiment: Study of activity by tarsal contact on cockroaches; conditions: male Blatella germanica; 1 hour on dried acetone deposit; mortality checked at 24 hours, 48 hours, 3 days and 5 days
Description: (2) Study of activity by tarsal contact on cockroaches
The insects tested were male cockroaches (Blatella germanica) and the test was carried out by depositing an acetone solution of a certain concentration on the bottom of a Petri dish 20 cm in diameter. After this had dried, 20 male cockroaches were allowed to stay there per concentration for 1 hour, after which they were transferred to a healthy medium and their mortality was checked at 24 hours, 48 hours, 3 days and 5 days. The result was expressed as lethal concentration 50 (LC 50) in mg/m^2.

Tetranychus urticae = experiment: Activity on Tetranychus urticae, test of lethal effect on adults; conditions: females on treated bean leaves; checked after 80 hours of contact
Description: (4) Activity on Tetranychus urticae, test of lethal effect on adults
Bean plants having two cotyledon leaves were used which were treated with a Fisher gun with an acetone solution of the product. After drying, 25 females of the acaridan Tetranychus urticae were placed on each leaf, that is 50 individuals per experimental dose per plant. The efficacity was checked after 80 hours of contact, and the LD 50 was indicated in mg/hl.

Aphis cracivora = experiment: Study of lethal effect on Aphis cracivora (contact-ingestion method); design: unit not given here; conditions: adults 7 days old; 1 hour contact with treated bean leaf; mortality checked after 24 hours
Description: (3) Study of lethal effect on Aphis cracivora
Adults 7 days old were used with 10 aphis per concentration using a contact-ingestion method. The treatment was carried out with a Fisher gun on a bean leaf which was placed in a plastic Petri dish on a disc of moistened paper. 2 ml of an acetone solution of the product under test were used with 1 ml per face of the leaf and the insect infestation was carried out after drying the leaf. The insects were kept in contact with the leaf for 1 hour and then they were placed on untreated leaves.

| Structure (SMILES) | KT 50 (house flies) [min] | lethal concentration 50 (LC 50) [1] [mg/m^2] | LD 50 (Tetranychus urticae) [mg/hl] | LD 50 (Aphis cracivora) |
| --- | --- | --- | --- | --- |
| C#CCn1ccc(COC(=O)[C@@H]2[C@H](/C=C(\Cl)C(F)(F)F)C2(C)C)c1C#N [Example 43, [2-cyano-1-(2-propynyl)-1H-pyrrol-3-yl]-methyl (1R,cisΔZ) 2,2-dimethyl-3-[(2-chloro-3,3,3-trifluoro)-1-propenyl]-cyclopropane carboxylate] | 2.9 | 2.8 | 342 | 7.5 |
| C#CCn1ccc(COC(=O)[C@@H]2[C@@H](C=C(Cl)C(F)(F)F)C2(C)C)c1C#N [Example 49, [1-(2-propynyl)-2-cyano-1H-pyrrol-3-yl]-methyl 1R, trans (E,1/3) (Z,2/3) 2,2-dimethyl-3-(2-chloro-2-trifluoromethylethenyl)-cyclopropane carboxylate] | 11.0 | – | – | 6.5 |
